# According to ChEMBL document CHEMBL4334464, “From Phenylthiazoles to Phenylpyrazoles: Broadening the Antibacterial Spectrum toward Carbapenem-Resistant Bacteria” (J Med Chem, 2019):
# Active and inactive are the calls of the source. The rule behind the calls is not given here.
# Experiments:
# Acinetobacter baumannii [1] = test: Ratio of MBC to MIC for Acinetobacter baumannii ATCC BAA 1747 clinical isolates; format: functional
# Escherichia coli [2] = test: Ratio of MBC to MIC for Escherichia coli ATCC 25922 clinical isolates; format: functional
# Enterococcus faecalis = test: Ratio of MBC to MIC for vancomycin-resistant Enterococcus faecalis ATCC 51299 clinical isolates; format: functional
# Staphylococcus aureus [3] = test: Antibacterial activity against methicillin-resistant Staphylococcus aureus NRS384-USA300 clinical isolates after 18 to 20 hrs in aerobic condition by CLSI protocol based broth microdilution assay; format: functional
# Acinetobacter baumannii [4] = test: Ratio of MBC to MIC for Acinetobacter baumannii NR 17786 clinical isolates; format: functional
# Pseudomonas aeruginosa [5] = test: microbe, parasite or virus in culture; conditions: ATCC 25619
# Description: Antibacterial activity against Pseudomonas aeruginosa ATCC 25619 clinical isolates after 18 to 20 hrs in aerobic condition by CLSI-based broth microdilution assay
# Acinetobacter baumannii [6] = test: Antibacterial activity against carbapenem-resistant Acinetobacter baumannii ATCC BAA 1605 clinical isolates after 18 to 20 hrs in aerobic condition by CLSI-based broth microdilution assay; format: functional
# Escherichia coli [7] = test: Antibacterial activity against Escherichia coli ATCC 25922 clinical isolates after 18 to 20 hrs in aerobic condition by CLSI-based broth microdilution assay; format: functional
# Salmonella enterica [8] = test: Antibacterial activity against Salmonella enterica NR-170 clinical isolates after 18 to 20 hrs in aerobic condition by CLSI-based broth microdilution assay; format: functional
# Escherichia coli [9] = test: Antibacterial activity against Escherichia coli ATCC 35150 clinical isolates after 18 to 20 hrs in aerobic condition by CLSI-based broth microdilution assay; format: functional
# Acinetobacter baumannii [10] = test: Ratio of MBC to MIC for Acinetobacter baumannii ATCC 19606 clinical isolates; format: functional, ATCC 19606 = CIP 70.34 = JCM 6841
# Pseudomonas aeruginosa [11] = test: Ratio of MBC to MIC for Pseudomonas aeruginosa ATCC 25619 clinical isolates; format: functional
# Acinetobacter baumannii [12] = test: Antibacterial activity against Acinetobacter baumannii NR 17785 clinical isolates after 18 to 20 hrs in aerobic condition by CLSI-based broth microdilution assay; format: functional
# Listeria monocytogenes = test: Ratio of MBC to MIC for Listeria monocytogenes ATCC 19111 clinical isolates; format: functional
# [13] = Antibacterial activity against Enterobacter cloacae subsp. cloacae ATCC BAA-1143 clinical isolates after 18 to 20 hrs in aerobic condition by CLSI-based broth microdilution assay; format: functional
# Salmonella typhimurium = test: Antibacterial activity against Salmonella typhimurium ATCC 700720 after 18 to 20 hrs in aerobic condition by CLSI-based broth microdilution assay; format: functional, Salmonella enterica subsp. enterica serovar Typhimurium; conditions: Salmonella enterica
# Pseudomonas aeruginosa [14] = test: Ratio of MBC to MIC for Pseudomonas aeruginosa ATCC 9027 clinical isolates; format: functional
# Staphylococcus aureus [15] = test: Ratio of MBC to MIC for Methicillin-sensitive Staphylococcus aureus ATCC 6538 clinical isolates; format: functional
# Escherichia coli [16] = test: Ratio of MBC to MIC for Escherichia coli ATCC 1411 clinical isolates; format: functional
# Shigella flexneri [17] = test: Ratio of MBC to MIC for Shigella flexneri ATCC 9199 clinical isolates; format: functional
# Escherichia coli [18] = test: Ratio of MBC to MIC for Escherichia coli ATCC 35150 clinical isolates; format: functional
# Staphylococcus aureus [19] = test: Antibacterial activity against Methicillin-resistant Staphylococcus aureus NRS385-USA500 clinical isolates after 18 to 20 hrs in aerobic condition by CLSI protocol based broth microdilution assay; format: functional
# Salmonella enterica [20] = test: Ratio of MBC to MIC for Salmonella enterica NR-170 clinical isolates; format: functional
# Staphylococcus aureus [21] = test: Antibacterial activity against Methicillin-sensitive Staphylococcus aureus NRS107 clinical isolates after 18 to 20 hrs in aerobic condition by CLSI protocol based broth microdilution assay; format: functional
# Staphylococcus aureus [22] = test: Antibacterial activity against vancomycin-resistant Staphylococcus aureus isolate 10 after 18 to 20 hrs in aerobic condition by CLSI-based broth microdilution assay; format: functional
# Staphylococcus aureus [23] = test: Ratio of MBC to MIC for Methicillin-sensitive Staphylococcus aureus NRS107 clinical isolates; format: functional
# Shigella flexneri [24] = test: Antibacterial activity against Shigella flexneri ATCC 9199 clinical isolates after 18 to 20 hrs in aerobic condition by CLSI-based broth microdilution assay; format: functional
# Salmonella enteritidis [25] = test: Antibacterial activity against Salmonella enteritidis ATCC 14028 clinical isolates after 18 to 20 hrs in aerobic condition by CLSI-based broth microdilution assay; format: functional, Salmonella enterica subsp. enterica serovar Enteritidis; conditions: Salmonella enterica
# Staphylococcus aureus [26] = test: Antibacterial activity against linezolid-resistant/Methicillin-resistant Staphylococcus aureus NRS119 clinical isolates after 18 to 20 hrs in aerobic condition by CLSI protocol based broth microdilution assay; format: functional
# Escherichia coli [27] = test: Inhibition of 6His tagged Escherichia coli UPPP expressed in Escherichia coli C41(DE3) cells preincubated for 15 mins followed by FPP substrate addition and measured after 20 mins by malachite green reagent based assay
# Pseudomonas aeruginosa [28] = test: Ratio of MBC to MIC for Pseudomonas aeruginosa ATCC 15442 clinical isolates; format: functional
# Staphylococcus aureus [29] = test: Antibacterial activity against Methicillin-resistant Staphylococcus aureus NRS123-USA400 clinical isolates after 18 to 20 hrs in aerobic condition by CLSI protocol based broth microdilution assay; format: functional
# Acinetobacter baumannii [30] = test: microbe, parasite or virus in culture; conditions: ATCC BAA 1747
# Description: Antibacterial activity against Acinetobacter baumannii ATCC BAA 1747 after 18 to 20 hrs in aerobic condition by CLSI-based broth microdilution assay
# Klebsiella pneumoniae = test: Ratio of MBC to MIC for Klebsiella pneumoniae BAA-1706 after 18 to 20 hrs in aerobic condition by CLSI-based broth microdilution assay; format: functional
# Acinetobacter baumannii [31] = test: Ratio of MBC to MIC for Acinetobacter baumannii ATCC BAA 1141 clinical isolates; format: functional
# Staphylococcus aureus [32] = test: Antibacterial activity against vancomycin-resistant Staphylococcus aureus isolate 12 after 18 to 20 hrs in aerobic condition by CLSI-based broth microdilution assay; format: functional
# Acinetobacter baumannii [33] = test: Ratio of MBC to MIC for Acinetobacter baumannii NR 17785 clinical isolates; format: functional
# Salmonella enteritidis [34] = test: Ratio of MBC to MIC for Salmonella enteritidis ATCC 14028 clinical isolates; format: functional, Salmonella enterica subsp. enterica serovar Enteritidis
# Staphylococcus aureus [35] = test: Antibacterial activity against Methicillin-resistant Staphylococcus aureus USA700-NRS386 clinical isolates after 18 to 20 hrs in aerobic condition by CLSI protocol based broth microdilution assay; format: functional
# Escherichia coli [36] = test: Ratio of MBC to MIC for Escherichia coli BW25113 clinical isolates; format: functional
# Escherichia coli [37] = test: Antibacterial activity against Escherichia coli BW25113 clinical isolates after 18 to 20 hrs in aerobic condition by CLSI-based broth microdilution assay; format: functional
# Escherichia coli [38] = test: Antimicrobial activity against Escherichia coli JW55031 harboring deltatolC mutant after 18 to 20 hrs in aerobic condition by CLSI protocol based broth microdilution assay; format: functional
# Streptococcus pneumoniae = test: Antibacterial activity against methicillin-resistant Streptococcus pneumoniae ATCC 700677 clinical isolates after 18 to 20 hrs by CLSI-based broth microdilution assay; format: functional
# Pseudomonas aeruginosa [39] = test: Antibacterial activity against Pseudomonas aeruginosa ATCC 15442 clinical isolates after 18 to 20 hrs in aerobic condition by CLSI-based broth microdilution assay; format: functional
# Staphylococcus aureus [40] = test: Bactericidal activity against methicillin-resistant Staphylococcus aureus NRS123-USA400 clinical isolates at 5 times MIC incubated over 24 hrs followed by replating on tryptic soy agar plate and further incubated for 18 to 20 hrs by time kill assay; format: functional, organism-based
compound,measurement,setting,value
CCCCCC#Cc1ccc(-n2ncc(/C(C)=N/NC(=N)N)c2C)cc1,Ratio,Acinetobacter baumannii [1],>=1
same,Ratio,Escherichia coli [2],>=1
same,Ratio,Enterococcus faecalis,<3
same,MIC,Staphylococcus aureus [3],2 µg/mL
same,Ratio,Acinetobacter baumannii [4],>=1
same,MIC,Pseudomonas aeruginosa [5],32 µg/mL
same,MIC,Acinetobacter baumannii [6],8 µg/mL
same,MIC,Escherichia coli [7],8 µg/mL
same,MIC,Salmonella enterica [8],8 µg/mL
same,MIC,Escherichia coli [9],8 µg/mL
same,Ratio,Acinetobacter baumannii [10],>=1
same,Ratio,Pseudomonas aeruginosa [11],>=1
same,MIC,Acinetobacter baumannii [12],8 µg/mL
same,Ratio,Listeria monocytogenes,<3
same,MIC,[13],8 µg/mL
same,MIC,Salmonella typhimurium,8 µg/mL
same,Ratio,Pseudomonas aeruginosa [14],>=1
same,Ratio,Staphylococcus aureus [15],<=2
same,Ratio,Escherichia coli [16],>=1
same,Ratio,Shigella flexneri [17],>=1
same,Ratio,Escherichia coli [18],>=1
same,MIC,Staphylococcus aureus [19],2 µg/mL
same,Ratio,Salmonella enterica [20],>=1
same,MIC,Staphylococcus aureus [21],2 µg/mL
same,MIC,Staphylococcus aureus [22],2 µg/mL
same,Ratio,Staphylococcus aureus [23],<=2
same,MIC,Shigella flexneri [24],8 µg/mL
same,MIC,Salmonella enteritidis [25],16 µg/mL
same,MIC,Staphylococcus aureus [26],2 µg/mL
same,inhibition,Escherichia coli [27],inactive
same,Ratio,Pseudomonas aeruginosa [28],>=1
same,MIC,Staphylococcus aureus [29],2 µg/mL
same,MIC,Acinetobacter baumannii [30],4 µg/mL
same,Ratio,Klebsiella pneumoniae,>=1
same,Ratio,Acinetobacter baumannii [31],>=1
same,MIC,Staphylococcus aureus [32],2 µg/mL
same,Ratio,Acinetobacter baumannii [33],>=1
same,Ratio,Salmonella enteritidis [34],>=1
same,MIC,Staphylococcus aureus [35],2 µg/mL
same,Ratio,Escherichia coli [36],>=1
same,MIC,Escherichia coli [37],8 µg/mL
same,MIC,Escherichia coli [38],4 µg/mL
same,MIC,Streptococcus pneumoniae,2 µg/mL
same,MIC,Pseudomonas aeruginosa [39],32 µg/mL
same,Activity,Staphylococcus aureus [40],Active
C/C(=N\NC(=N)N)c1cnn(-c2ccc(C#CC3CCCCC3)cc2)c1C,Ratio,Acinetobacter baumannii [1],>=1
same,Ratio,Escherichia coli [2],>=1
same,Ratio,Enterococcus faecalis,<3
same,MIC,Staphylococcus aureus [3],2 µg/mL
same,Ratio,Acinetobacter baumannii [4],>=1
same,MIC,Pseudomonas aeruginosa [5],64 µg/mL
same,MIC,Acinetobacter baumannii [6],4 µg/mL
same,MIC,Escherichia coli [7],4 µg/mL
same,MIC,Salmonella enterica [8],8 µg/mL
same,MIC,Escherichia coli [9],4 µg/mL
same,Ratio,Acinetobacter baumannii [10],>=1
same,Ratio,Pseudomonas aeruginosa [11],>=1
same,MIC,Acinetobacter baumannii [12],8 µg/mL
same,Ratio,Listeria monocytogenes,<3
same,MIC,[13],8 µg/mL
same,MIC,Salmonella typhimurium,8 µg/mL
same,Ratio,Pseudomonas aeruginosa [14],>=1
same,Ratio,Staphylococcus aureus [15],<=2
same,Ratio,Escherichia coli [16],>=1
same,Ratio,Shigella flexneri [17],>=1
same,Ratio,Escherichia coli [18],>=1
same,MIC,Staphylococcus aureus [19],2 µg/mL
same,Ratio,Salmonella enterica [20],>=1
same,MIC,Staphylococcus aureus [21],2 µg/mL
same,MIC,Staphylococcus aureus [22],2 µg/mL
same,Ratio,Staphylococcus aureus [23],<=2
same,MIC,Shigella flexneri [24],8 µg/mL
same,MIC,Salmonella enteritidis [25],32 µg/mL
same,MIC,Staphylococcus aureus [26],2 µg/mL
same,inhibition,Escherichia coli [27],inactive
same,Ratio,Pseudomonas aeruginosa [28],>=1
same,MIC,Staphylococcus aureus [29],2 µg/mL
same,MIC,Acinetobacter baumannii [30],4 µg/mL
same,Ratio,Klebsiella pneumoniae,>=1
same,Ratio,Acinetobacter baumannii [31],>=1
same,MIC,Staphylococcus aureus [32],2 µg/mL
same,Ratio,Acinetobacter baumannii [33],>=1
same,Ratio,Salmonella enteritidis [34],>=1
same,MIC,Staphylococcus aureus [35],2 µg/mL
same,Ratio,Escherichia coli [36],>=1
same,MIC,Escherichia coli [37],4 µg/mL
same,MIC,Escherichia coli [38],2 µg/mL
same,MIC,Streptococcus pneumoniae,2 µg/mL
same,MIC,Pseudomonas aeruginosa [39],32 µg/mL
same,Activity,Staphylococcus aureus [40],Active
C/C(=N\NC(=N)N)c1cnn(-c2ccc(C#CC3CCCC3)cc2)c1C,Ratio,Acinetobacter baumannii [1],>=1
same,Ratio,Escherichia coli [2],>=1
same,Ratio,Enterococcus faecalis,<3
same,MIC,Staphylococcus aureus [3],1 µg/mL
same,Ratio,Acinetobacter baumannii [4],>=1
same,MIC,Pseudomonas aeruginosa [5],16 µg/mL
same,MIC,Acinetobacter baumannii [6],8 µg/mL
same,MIC,Escherichia coli [7],4 µg/mL
same,MIC,Salmonella enterica [8],8 µg/mL
same,MIC,Escherichia coli [9],4 µg/mL
same,Ratio,Acinetobacter baumannii [10],>=1
same,Ratio,Pseudomonas aeruginosa [11],>=1
same,MIC,Acinetobacter baumannii [12],4 µg/mL
same,Ratio,Listeria monocytogenes,<3
same,MIC,[13],8 µg/mL
same,MIC,Salmonella typhimurium,8 µg/mL
same,Ratio,Pseudomonas aeruginosa [14],>=1
same,Ratio,Staphylococcus aureus [15],<=2
same,Ratio,Escherichia coli [16],>=1
same,Ratio,Shigella flexneri [17],>=1
same,Ratio,Escherichia coli [18],>=1
same,MIC,Staphylococcus aureus [19],0.5 µg/mL
same,Ratio,Salmonella enterica [20],>=1
same,MIC,Staphylococcus aureus [21],1 µg/mL
same,MIC,Staphylococcus aureus [22],0.5 µg/mL
same,Ratio,Staphylococcus aureus [23],<=2
same,MIC,Shigella flexneri [24],8 µg/mL
same,MIC,Salmonella enteritidis [25],8 µg/mL
same,MIC,Staphylococcus aureus [26],1 µg/mL
same,inhibition,Escherichia coli [27],inactive
same,Ratio,Pseudomonas aeruginosa [28],>=1
same,MIC,Staphylococcus aureus [29],2 µg/mL
same,MIC,Acinetobacter baumannii [30],4 µg/mL
same,Ratio,Klebsiella pneumoniae,>=1
same,Ratio,Acinetobacter baumannii [31],>=1
same,MIC,Staphylococcus aureus [32],1 µg/mL
same,Ratio,Acinetobacter baumannii [33],>=1
same,Ratio,Salmonella enteritidis [34],>=1
same,MIC,Staphylococcus aureus [35],1 µg/mL
same,Ratio,Escherichia coli [36],>=1
same,MIC,Escherichia coli [37],8 µg/mL
same,MIC,Escherichia coli [38],2 µg/mL
same,MIC,Streptococcus pneumoniae,0.5 µg/mL
same,MIC,Pseudomonas aeruginosa [39],32 µg/mL
same,Activity,Staphylococcus aureus [40],Active
